Test results taken from the supplement of paper PMC10307832.

Legend:
Experiment in all cases: relative viability (nuclei count vs DMSO), 5 days (fraction); higher = more cells survive
CAL-12T = system: CAL-12T
Summary of the method: (§1)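 A single step with final 0.05% Triton X-100, 1% formaldehyde and 1 ug/ml Hoechst fixed the cells and stained nuclei 5 days after treatment. Lung cancer cell lines in 1536-well plates had been treated by pin tool the day after seeding with one drug alone or a fixed anchor-drug dose plus five library-drug doses (not always all listed) in √10 steps, and nuclei were counted on 4× images. Relative viability is the ratio of nuclei in treated wells to nuclei in vehicle wells, taken as the median of duplicate plates.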

COR-L 105 = system: COR-L 105
Summary of the method: as §1

COR-L23 = system: COR-L23
Summary of the method: as §1

HARA = system: HARA
Summary of the method: as §1

HCC-15 = system: HCC-15
Summary of the method: as §1

HCC-366 = system: HCC-366
Summary of the method: as §1

HCC-44 = system: HCC-44
Summary of the method: as §1

HCC-827 = system: HCC-827
Summary of the method: as §1

HOP-62 = system: HOP-62
Summary of the method: as §1

LC-2-ad = system: LC-2-ad
Summary of the method: as §1

LK-2 = system: LK-2
Summary of the method: as §1

LU99A = system: LU99A
Summary of the method: as §1

LXF-289 = system: LXF-289
Summary of the method: as §1

NCI-H1944 = system: NCI-H1944
Summary of the method: as §1

NCI-H1975 = system: NCI-H1975
Summary of the method: as §1

NCI-H2023 = system: NCI-H2023
Summary of the method: as §1

NCI-H2085 = system: NCI-H2085
Summary of the method: as §1

NCI-H2342 = system: NCI-H2342
Summary of the method: as §1

NCI-H522 = system: NCI-H522
Summary of the method: as §1

NCI-H647 = system: NCI-H647
Summary of the method: as §1

NCI-H838 = system: NCI-H838
Summary of the method: as §1

PC-14 = system: PC-14
Summary of the method: as §1

SW 900 = system: SW 900
Summary of the method: as §1

Oc1nc(-c2ccc(C(F)(F)F)cc2)nc2c1CSCC2 [XAV939] + Nc1nc2[nH]cc(CCc3ccc(C(=O)N[C@@H](CCC(=O)O)C(=O)O)cc3)c2c(=O)[nH]1 [Pemetrexed] (partner 0.2 µM)
relative viability (CAL-12T; first compound 0.08 µM): 1.2
relative viability (CAL-12T; first compound 0.253 µM): 1.13
relative viability (CAL-12T; first compound 0.8 µM): 1.18
relative viability (CAL-12T; first compound 2.53 µM): 0.814
relative viability (COR-L 105; first compound 0.08 µM): 1.09
relative viability (COR-L 105; first compound 0.253 µM): 0.916
relative viability (COR-L 105; first compound 0.8 µM): 1.03
relative viability (COR-L 105; first compound 2.53 µM): 0.875
relative viability (COR-L23; first compound 0.08 µM): 0.205
relative viability (COR-L23; first compound 0.253 µM): 0.186
relative viability (COR-L23; first compound 0.8 µM): 0.203
relative viability (COR-L23; first compound 2.53 µM): 0.206
relative viability (HARA; first compound 0.08 µM): 0.255
relative viability (HARA; first compound 0.253 µM): 0.305
relative viability (HARA; first compound 0.8 µM): 0.252
relative viability (HARA; first compound 2.53 µM): 0.193
relative viability (HCC-15; first compound 0.08 µM): 0.238
relative viability (HCC-15; first compound 0.253 µM): 0.214
relative viability (HCC-15; first compound 0.8 µM): 0.241
relative viability (HCC-15; first compound 2.53 µM): 0.201
relative viability (HCC-366; first compound 0.08 µM): 0.179
relative viability (HCC-366; first compound 0.253 µM): 0.131
relative viability (HCC-366; first compound 0.8 µM): 0.142
relative viability (HCC-366; first compound 2.53 µM): 0.117
relative viability (HCC-44; first compound 0.08 µM): 0.614
relative viability (HCC-44; first compound 0.253 µM): 0.59
relative viability (HCC-44; first compound 0.8 µM): 0.636
relative viability (HCC-44; first compound 2.53 µM): 0.616
relative viability (HCC-827; first compound 0.08 µM): 0.275
relative viability (HCC-827; first compound 0.253 µM): 0.268
relative viability (HCC-827; first compound 0.8 µM): 0.254
relative viability (HCC-827; first compound 2.53 µM): 0.245
relative viability (HOP-62; first compound 0.08 µM): 0.347
relative viability (HOP-62; first compound 0.253 µM): 0.287
relative viability (HOP-62; first compound 0.8 µM): 0.292
relative viability (HOP-62; first compound 2.53 µM): 0.215
relative viability (LC-2-ad; first compound 0.08 µM): 0.281
relative viability (LC-2-ad; first compound 0.253 µM): 0.265
relative viability (LC-2-ad; first compound 0.8 µM): 0.264
relative viability (LC-2-ad; first compound 2.53 µM): 0.266
relative viability (LK-2; first compound 0.08 µM): 0.291
relative viability (LK-2; first compound 0.253 µM): 0.281
relative viability (LK-2; first compound 0.8 µM): 0.236
relative viability (LK-2; first compound 2.53 µM): 0.229
relative viability (LU99A; first compound 0.08 µM): 0.19
relative viability (LU99A; first compound 0.253 µM): 0.167
relative viability (LU99A; first compound 0.8 µM): 0.184
relative viability (LU99A; first compound 2.53 µM): 0.181
relative viability (LXF-289; first compound 0.08 µM): 0.886
relative viability (LXF-289; first compound 0.253 µM): 0.916
relative viability (LXF-289; first compound 0.8 µM): 0.957
relative viability (LXF-289; first compound 2.53 µM): 0.895
relative viability (NCI-H1944; first compound 0.08 µM): 0.714
relative viability (NCI-H1944; first compound 0.253 µM): 0.623
relative viability (NCI-H1944; first compound 0.8 µM): 0.584
relative viability (NCI-H1944; first compound 2.53 µM): 0.501
relative viability (NCI-H1975; first compound 0.08 µM): 0.27
relative viability (NCI-H1975; first compound 0.253 µM): 0.273
relative viability (NCI-H1975; first compound 0.8 µM): 0.286
relative viability (NCI-H1975; first compound 2.53 µM): 0.246
relative viability (NCI-H2023; first compound 0.08 µM): 0.279
relative viability (NCI-H2023; first compound 0.253 µM): 0.197
relative viability (NCI-H2023; first compound 0.8 µM): 0.208
relative viability (NCI-H2023; first compound 2.53 µM): 0.199
relative viability (NCI-H2085; first compound 0.08 µM): 1.02
relative viability (NCI-H2085; first compound 0.253 µM): 0.801
relative viability (NCI-H2085; first compound 0.8 µM): 0.878
relative viability (NCI-H2085; first compound 2.53 µM): 0.837
relative viability (NCI-H2342; first compound 0.08 µM): 0.784
relative viability (NCI-H2342; first compound 0.253 µM): 0.662
relative viability (NCI-H2342; first compound 0.8 µM): 0.719
relative viability (NCI-H2342; first compound 2.53 µM): 0.426
relative viability (NCI-H522; first compound 0.08 µM): 1.04
relative viability (NCI-H522; first compound 0.253 µM): 0.88
relative viability (NCI-H522; first compound 0.8 µM): 0.964
relative viability (NCI-H522; first compound 2.53 µM): 0.985
relative viability (NCI-H647; first compound 0.08 µM): 0.168
relative viability (NCI-H647; first compound 0.253 µM): 0.179
relative viability (NCI-H647; first compound 0.8 µM): 0.166
relative viability (NCI-H647; first compound 2.53 µM): 0.146
relative viability (NCI-H838; first compound 0.08 µM): 0.252
relative viability (NCI-H838; first compound 0.253 µM): 0.245
relative viability (NCI-H838; first compound 0.8 µM): 0.244
relative viability (NCI-H838; first compound 2.53 µM): 0.233
relative viability (PC-14; first compound 0.08 µM): 0.14
relative viability (PC-14; first compound 0.253 µM): 0.12
relative viability (PC-14; first compound 0.8 µM): 0.123
relative viability (PC-14; first compound 2.53 µM): 0.118
relative viability (SW 900; first compound 0.253 µM): 0.45
relative viability (SW 900; first compound 0.8 µM): 0.483
relative viability (SW 900; first compound 2.53 µM): 0.42
